Consider one compound from patent publication US6841661B2, “Glycopeptide antibacterial compounds, compositions containing same and methods of using same” (Princeton Univerisity, priority 1999, dated 2005).

Converted amounts (≈) assume the structure as drawn.

One experiment concerns MRSA COL. The experiment can be described thus: In vitro MIC panel assay (NCCLS broth microdilution). Format: cell-based. To be noted: Staphylococcus aureus. The text has this: (§1) National Committee for Clinical Laboratory Standards (NCCLS) guidelines [Methods for Dilution Antimicrobial Susceptibility Tests for Bacteria that Grow Aerobically-Fourth Edition; Approved Standard (NCCLS Document M7-A4, January 1997)] are used to establish the assay, although variations are made to optimize the published method according to the specific needs of the present investigation.
(§2) The test panel currently includes eight enterococci and 13 staphylococci, which are selected based upon their antibiotic susceptibility profiles. The methicillin-sensitive Staphylococcus aureus (MSSA) strain MB2985 (Smith isolate) is used to assesses the potential for serum protein binding of the compounds. The paired Gram-negative strains ASP #49 (envA-) and ASP #50 (envA+) (M. Salvatore/N. Lee) are included to judge membrane effects. Table 3 presents a detailed description of the strains included in the panel, including some of the sources of the strains of bacteria.
(§3) The glycopeptide antibiotic teicoplanin is included whenever possible.
(§4) TSB, containing 10% HS* for vancomycin intermediate S. aurcus/methicillin-resistant S. aureus (VISA/MRSA) strains, is inoculated from an appropriate source (frozen broth or agar slant) and grown approximately 17 hr at 35° C. with shaking at 220 rpm. Cultures are grown in tubes with a volume of 5 ml for enterococci and 2 ml for all other strains.
(§5) Four milliliter (4 ml) overnight culture is added to 36 ml physiological saline to obtain tenfold dilutions (enterococci). Overnight culture (0.4 ml) is added to 39.6 ml saline to obtain 100-fold dilutions (all strains except enterococci). Diluted cultures are maintained on ice until time of inoculation of test plates.
(§6) The number of CFU/mL is determined on BHI agar plates, although this is not done routinely because titers of overnight cultures are relatively constant. The test media include: • BHI for enterococci and VISA/MRSA; • MH II (i.e., cation-adjusted Mueller-Hinton broth) for MRS, MSS and E. coli.; • MH II+HSA for MSSA is prepared as follows: • a. 2×MHII+86mg/ml HSA • b. Dissolve 4.3 g HSA in 50 ml autoclaved 2x MH II. • c. pH to 7.0 by adding 2M MOPS, sodium. • d. Filter sterilize using 0.22 μm Coming cellulose acetate filter, used because of reported low protein binding. • e. 1×MH II+43 mg/ml HSA • f. Dilute the 2×medium twofold and filter as above. 5.8.6. Preparation of Test Plates
(§7) Using a Denley liquid handling system (or similar automatic device), 100 μ1×medium is added to each well in columns 2-12 of a 96-well microtiter dish. Using a multichannel pipettor, 100 μl 2×medium is added to each well in column 1. Plates may be filled on the day prior to assay, wrapped in plastic bags and refrigerated.
(§8) Vancomycin, Schering 29482, and teicoplanin are prepared on a weight per volume basis using 10 mM 3-(N-morpholino)propane-sulfonic acid (MOPS) buffer pH 7. Test compounds are received in solution in appropriate solvent (typically as 1 mg/ml in DMSO) or are dissolved in appropriate solvent prior to further dilution in 10 mM MOPS buffer, ph7. Consistent with NCCLS guidelines, antibiotics are handled aseptically but are not otherwise sterilized.
(§9) 100 μl appropriately diluted antibiotic solution is added to the first well of the designated row of the 96-well microtiter dish and serially diluted by twofold across the row using the Denley liquid handling system. With the aid of a Dynatech NEC 2000 inoculator, each well of the microtiter dish is inoculated with 1.5 μl diluted overnight culture, yielding approximately 1-5×10^6 CFU/ml for enterococci and approximately 3-7×10^5 CFU/ml for all other strains. Dishes are placed in stacks of no more than five, wrapped in plastic bags and incubated at 35° C. • Indication of result(s) type (% INH, IC50, Zone size, etc.) • MIC=minimum inhibitory concentration ps 5.8.9. Interpretation of the Results on the Basis of Activity […]

The next experiment deals with E. faecalis MB2864. The experiment is described as above. It counts as cell-based. As to conditions: Enterococcus faecalis.
Text: as §1, §2, §3, §4, §5, §6, §7, §8, §9

Another experiment concerns MRCNS CL 202 (S. haem.). The experiment is described as above. Format: cell-based.
Text: as §1, §2, §3, §4, §5, §6, §7, §8, §9

The test system of another experiment is E. faecium RLA1. The description is as above. To be noted: Enterococcus faecium. It counts as cell-based.
Text: as §1, §2, §3, §4, §5, §6, §7, §8, §9

For the next experiment, the system named is E. coli ASP #49 (envA-). The experiment is described as above. To be noted: Escherichia coli. It counts as cell-based.
Text: as §1, §2, §3, §4, §5, §6, §7, §8, §9

In a further experiment the test system is MRSA CL 3033. Described as above. It counts as cell-based. To be noted: Staphylococcus aureus.
Text: as §1, §2, §3, §4, §5, §6, §7, §8, §9

The test system of the next experiment is MRCNS CL 227 (S. hom.). The description is as above. It counts as cell-based.
Text: as §1, §2, §3, §4, §5, §6, §7, §8, §9

Experiment [1] relates to E. faecalis CL 5244 (VanB). The description is as above. Format: cell-based. As to conditions: Enterococcus faecalis.
Text: as §1, §2, §3, §4, §5, §6, §7, §8, §9

Experiment [2] concerns E. gallinarum CL 4886 (VanC). Described as above. Format: cell-based. As to conditions: Enterococcus gallinarum.
Text: as §1, §2, §3, §4, §5, §6, §7, §8, §9

The next experiment deals with MRCNS CL 171 (S. haem.). The description is as above. It counts as cell-based.
Text: as §1, §2, §3, §4, §5, §6, §7, §8, §9

For a further experiment, the system named is S. aureus MB 2985. The experiment can be described thus: MIC by microdilution in Mueller-Hinton broth (in vivo study). Format: cell-based. As to conditions: Staphylococcus aureus, MB2985, inoculum 1.4 × 10^5 cfu/mL in cation adjusted MHB, read-out: MIC. As to the method:
The MIC is determined by microdilution in Mueller-Hinton broth (MHB) according to the National Committee for Clinical Laboratory Standards guidelines after incubation for 24 hours. Enterococci are tested in cation-supplemented Mueller-Hinton broth at 1.4×10^5 cfu/ml. MIC is defined as the lowest concentration of antibiotic, which inhibits visible growth.
In general terms: Dilution methods test growth across graded concentrations, often in twofold steps.

Another experiment deals with VISA/MRSA CL 5706. The experiment in a line: In vitro MIC panel assay (NCCLS broth microdilution). It counts as cell-based, S. aureus. As to conditions: Staphylococcus aureus.
Text: as §1, §2
(§10) The glycopeptide antibiotic teicoplanin is included whenever possible. […]
(§11) The number of CFU/mL is determined on BHI agar plates, although this is not done routinely because titers of overnight cultures are relatively constant. […]

A further experiment has as its system VISA/MRSA CL 5705. The description is as above. Format: cell-based, S. aureus. As to conditions: Staphylococcus aureus.
Text: as §1, §2, §10, §11

Experiment [3] deals with E. faecium CL 5242 (VanA). The experiment can be described thus: microbe, parasite or virus in culture. It counts as cell-based. As to conditions: for MIC, CL5242: E. faecium CL 5242 (VanA). The method, boiled down: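 NCCLS M7-A4-based broth microdilution with twofold serial dilutions, incubated at 35° C; medium BHI for enterococci and VISA/MRSA, cation-adjusted Mueller-Hinton for E. coli. Inoculum about 1-5×10^6 CFU/ml (enterococci) or 3-7×10^5 CFU/ml (others); MIC is lowest concentration with no visible growth, read at 18-20 hr for E. coli, 22-24 hr otherwise.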

As to `CN[C@H](CC(C)C)C(=O)N[C@H]1C(=O)N[C@@H](CC(N)=O)C(=O)N[C@H]2C(=O)N[C@H]3C(=O)N[C@H](C(=O)N[C@H](C(=O)O)c4cc(O)cc(O)c4-c4cc3ccc4O)[C@H](O)c3ccc(c(Cl)c3)Oc3cc2cc(c3O[C@@H]2O[C@H](CO)[C@@H](O)[C@H](O)[C@H]2O[C@H]2C[C@](C)(N)[C@H](O)[C@H](C)O2)Oc2ccc(cc2Cl)[C@H]1O` [Vancomycin, vancomycin, reference compound], the MIC is 1 µg/mL (≈ 0.69 µM) against MRSA COL; 2 µg/mL (≈ 1.38 µM) with E. faecalis MB2864; 2 µg/mL (≈ 1.38 µM) in the experiment on MRCNS CL 202 (S. haem.); 2 µg/mL (≈ 1.38 µM) against E. faecium RLA1; 32 µg/mL (≈ 22.1 µM) against E. coli ASP #49 (envA-); 0.5 to 1 µg/mL (≈ 0.345 to 0.69 µM) in the experiment on MRSA CL 3033. Also, the MIC in the experiment with MRCNS CL 227 (S. hom.) is 1 µg/mL (≈ 0.69 µM); in experiment [1], 32 µg/mL (≈ 22.1 µM); in experiment [2], 16 µg/mL (≈ 11 µM); against MRCNS CL 171 (S. haem.) it was 2 µg/mL (≈ 1.38 µM); in the experiment on S. aureus MB 2985, 0.5 µg/mL (≈ 0.345 µM); with VISA/MRSA CL 5706 it was 4 to 8 µg/mL (≈ 2.76 to 5.52 µM). In addition, the MIC in the experiment on VISA/MRSA CL 5705 is 2 to 4 µg/mL (≈ 1.38 to 2.76 µM); in [3] (Enterococcus faecium), 128 µg/mL (≈ 88.3 µM). In addition, the MIC, CL5242 in [3] (Table 9) and in experiment [3] (Table 10) was 512 µg/mL (≈ 353 µM) throughout. Moreover, the “CL5242 (in vitro testing)” value in [3] (Tables 7 and 8, unit not given) stood at 512.
